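Where inhibition never reached the appropriate level, the endpoint shown equals the highest concentration tested. Otherwise, values were interpolated linearly from a five-concentration, 48-hour dose response in 96-well plates. GI50 = concentration required for 50% inhibition of growth.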 Active and inactive are the calls of the source. No stated cut-off is given here; in the data, active = GI50 up to about 1.1 µM and inactive = higher.
How the values were obtained:
Assay in all cases: NCI tumour cell line growth inhibition, 48 h
786-0 = tested on: 786-0
A498 = tested on: A498
A549 = tested on: A549
ACHN = tested on: ACHN
BT-549 = tested on: BT-549
CAKI-1 = tested on: CAKI-1
DU-145 = tested on: DU-145
EKVX = tested on: EKVX
HCC 2998 = tested on: HCC 2998
HCT-116 = tested on: HCT-116
HCT-15 = tested on: HCT-15
HL-60 = tested on: HL-60
HOP-62 = tested on: HOP-62
HOP-92 = tested on: HOP-92
HT-29 = tested on: HT-29
Hs-578T = tested on: Hs-578T
IGROV-1 = tested on: IGROV-1
KM12 = tested on: KM12
LOX IMVI = tested on: LOX IMVI
M14 = tested on: M14
MCF7 = tested on: MCF7
MDA-MB-231 = tested on: MDA-MB-231
MDA-N = tested on: MDA-N
Malme-3M = tested on: Malme-3M
NCI-H226 = tested on: NCI-H226
NCI-H23 = tested on: NCI-H23
NCI-H460 = tested on: NCI-H460
NCI-H522 = tested on: NCI-H522
OVCAR-3 = tested on: OVCAR-3
OVCAR-4 = tested on: OVCAR-4
OVCAR-5 = tested on: OVCAR-5
OVCAR-8 = tested on: OVCAR-8
PC-3 = tested on: PC-3
RPMI-8226 = tested on: RPMI-8226
RXF 393 = tested on: RXF 393
SF-268 = tested on: SF-268
SF-295 = tested on: SF-295
SF-539 = tested on: SF-539
SK-MEL-28 = tested on: SK-MEL-28
SK-MEL-5 = tested on: SK-MEL-5
SN12C = tested on: SN12C
SNB-19 = tested on: SNB-19
SNB-75 = tested on: SNB-75
SR = tested on: SR
SW-620 = tested on: SW-620
T47D = tested on: T47D
TK-10 = tested on: TK-10
U-251 = tested on: U-251
UACC-257 = tested on: UACC-257
UO-31 = tested on: UO-31
CCRF-CEM = tested on: CCRF-CEM
COLO 205 = tested on: COLO 205
K562 = tested on: K562
MDA-MB-435 = tested on: MDA-MB-435
MOLT-4 = tested on: MOLT-4
NCI/ADR-RES = tested on: NCI/ADR-RES
SK-MEL-2 = tested on: SK-MEL-2
SK-OV-3 = tested on: SK-OV-3
UACC-62 = tested on: UACC-62

`CC(=O)Oc1ccc2cc(Oc3ccc(Cl)cc3)c(=O)oc2c1` was tested, and the GI50 (786-0) was 36.1 µM (inactive), the GI50 (A498) was 25.2 µM (inactive) and the GI50 (A549) was 21.6 µM (inactive). The GI50 (ACHN) was 38.8 µM (inactive), the GI50 (BT-549) was 25.9 µM (inactive) and the GI50 (CAKI-1) was 53 µM (inactive). For the same molecule, the GI50 (DU-145) was 53.6 µM (inactive), the GI50 (EKVX) was 36.5 µM (inactive) and the GI50 (HCC 2998) was 35.8 µM (inactive). The GI50 (HCT-116) was 27.5 µM (inactive), the GI50 (HCT-15) was 28.8 µM and the GI50 (HL-60) was 49.4 µM (inactive). The GI50 (HOP-62) was 58.2 µM (inactive), the GI50 (HOP-92) was 38.1 µM (inactive) and the GI50 (HT-29) was 63.7 µM (inactive). For the same molecule, the GI50 (Hs-578T) was 79.1 µM (inactive), the GI50 (IGROV-1) was 30.1 µM (inactive) and the GI50 (KM12) was 37.8 µM (inactive). The GI50 (LOX IMVI) was 37.9 µM (inactive), the GI50 (M14) was 49.9 µM (inactive) and the GI50 (MCF7) was 32.7 µM (inactive). For the same molecule, the GI50 (MDA-MB-231) was 44.3 µM (inactive), the GI50 (MDA-N) was 25.6 µM (inactive) and the GI50 (Malme-3M) was 25 µM (inactive). The GI50 (NCI-H226) was 41.5 µM (inactive), the GI50 (NCI-H23) was 41.4 µM (inactive) and the GI50 (NCI-H460) was 40.7 µM (inactive). For the same molecule, the GI50 (NCI-H522) was 22.3 µM (inactive), the GI50 (OVCAR-3) was 19.2 µM (inactive) and the GI50 (OVCAR-4) was 58.2 µM (inactive). For the same molecule, the GI50 (OVCAR-5) was > 100 µM (inactive), the GI50 (OVCAR-8) was 19.1 µM (inactive) and the GI50 (PC-3) was 28.2 µM (inactive). The GI50 (RPMI-8226) was 34.8 µM (inactive), the GI50 (RXF 393) was 46.9 µM (inactive) and the GI50 (SF-268) was 53.8 µM (inactive). For the same molecule, the GI50 (SF-295) was 33.6 µM (inactive), the GI50 (SF-539) was 33.3 µM (inactive) and the GI50 (SK-MEL-28) was 41.5 µM (inactive). For the same molecule, the GI50 (SK-MEL-5) was 20.4 µM (inactive), the GI50 (SN12C) was 29.6 µM (inactive) and the GI50 (SNB-19) was 60.4 µM (inactive). The GI50 (SNB-75) was 75.5 µM (inactive), the GI50 (SR) was 64.7 µM (inactive) and the GI50 (SW-620) was 40.8 µM (inactive). For the same molecule, the GI50 (T47D) was 34.1 µM (inactive), the GI50 (TK-10) was > 100 µM (inactive) and the GI50 (U-251) was 42.8 µM (inactive). The GI50 (UACC-257) was 24.1 µM (inactive) and the GI50 (UO-31) was 30.6 µM (inactive).

With `COc1ccc(NC(C)=O)cc1N1C(=O)/C(=C\c2cc(OC)c(OC)c(OC)c2)SC1c1ccccc1` (configuration not stated) the GI50 (786-0) was 54 µM (inactive), the GI50 (A498) was 75 µM (inactive) and the GI50 (A549) was 57.8 µM (inactive). For the same molecule, the GI50 (ACHN) was 44.4 µM (inactive), the GI50 (BT-549) was 97.5 µM (inactive) and the GI50 (CAKI-1) was 19 µM (inactive). The GI50 (CCRF-CEM) was 37 µM (inactive), the GI50 (COLO 205) was 39.6 µM (inactive) and the GI50 (DU-145) was 91.4 µM (inactive). The GI50 (EKVX) was 24.9 µM (inactive), the GI50 (HCC 2998) was > 100 µM (inactive) and the GI50 (HCT-116) was 30 µM (inactive). The GI50 (HCT-15) was 38.1 µM, the GI50 (HL-60) was 20.4 µM (inactive) and the GI50 (HOP-62) was 63.7 µM (inactive). The GI50 (HOP-92) was 29.5 µM (inactive), the GI50 (HT-29) was 47.1 µM (inactive) and the GI50 (IGROV-1) was 23.8 µM (inactive). For the same molecule, the GI50 (K562) was 30.9 µM (inactive), the GI50 (KM12) was 40.6 µM (inactive) and the GI50 (LOX IMVI) was 39.3 µM (inactive). For the same molecule, the GI50 (M14) was 49.8 µM (inactive), the GI50 (MCF7) was 28.2 µM (inactive) and the GI50 (MDA-MB-231) was 19.4 µM (inactive). For the same molecule, the GI50 (MDA-MB-435) was 36 µM (inactive), the GI50 (MDA-N) was 25.5 µM (inactive) and the GI50 (MOLT-4) was 19.3 µM (inactive). The GI50 (Malme-3M) was 47 µM (inactive), the GI50 (NCI-H226) was 50.9 µM (inactive) and the GI50 (NCI-H23) was 72.8 µM (inactive). For the same molecule, the GI50 (NCI-H460) was 43.2 µM (inactive), the GI50 (NCI-H522) was 28.6 µM (inactive) and the GI50 (NCI/ADR-RES) was 45.6 µM (inactive). For the same molecule, the GI50 (OVCAR-3) was 36.1 µM (inactive), the GI50 (OVCAR-4) was 39 µM (inactive) and the GI50 (OVCAR-5) was > 100 µM (inactive). For the same molecule, the GI50 (OVCAR-8) was 48.1 µM (inactive), the GI50 (PC-3) was 31.5 µM (inactive) and the GI50 (RPMI-8226) was 17.4 µM (inactive). For the same molecule, the GI50 (RXF 393) was 33.5 µM (inactive), the GI50 (SF-295) was 52 µM (inactive) and the GI50 (SF-539) was 64.6 µM (inactive). The GI50 (SK-MEL-28) was 41.9 µM (inactive), the GI50 (SK-MEL-2) was 57.9 µM (inactive) and the GI50 (SK-MEL-5) was 33.7 µM (inactive). The GI50 (SK-OV-3) was 82.2 µM (inactive), the GI50 (SN12C) was 40.2 µM (inactive) and the GI50 (SNB-19) was 83.4 µM (inactive). The GI50 (SNB-75) was 26.9 µM (inactive), the GI50 (SR) was 27.8 µM (inactive) and the GI50 (SW-620) was 52.7 µM (inactive). For the same molecule, the GI50 (T47D) was 33.5 µM (inactive), the GI50 (TK-10) was > 100 µM (inactive) and the GI50 (U-251) was 34.7 µM (inactive). For the same molecule, the GI50 (UACC-257) was 67.9 µM (inactive), the GI50 (UACC-62) was 67.9 µM (inactive) and the GI50 (UO-31) was 22.1 µM (inactive).

From ChEMBL document CHEMBL1201862, “PubChem BioAssay data set” (2004)
